According to ChEMBL document CHEMBL5614436, “Targeting HSP90 for Cancer Therapy: Current Progress and Emerging Prospects” (J Med Chem, 2024):
One block for each molecule: values may come before it.

Experiments:
[1] = target: Heat shock protein HSP 90-beta (Homo sapiens, UniProt P08238); assay: Binding affinity to HSP90beta (unknown origin) assessed as dissociation constant by fluorescence polarization assay
[2] = target: T1, Heat shock protein HSP 90-alpha (Homo sapiens, UniProt P07900); assay: Binding affinity to HSP90alpha (unknown origin) assessed as dissociation constant by fluorescence polarization assay
[3] = target: [Pyruvate dehydrogenase (acetyl-transferring)] kinase isozyme 1, mitochondrial (Homo sapiens, UniProt Q15118); assay: Inhibition of PDHK1 (unknown origin)
Sequence of [Pyruvate dehydrogenase (acetyl-transferring)] kinase isozyme 1, mitochondrial (Q15118 whole entry): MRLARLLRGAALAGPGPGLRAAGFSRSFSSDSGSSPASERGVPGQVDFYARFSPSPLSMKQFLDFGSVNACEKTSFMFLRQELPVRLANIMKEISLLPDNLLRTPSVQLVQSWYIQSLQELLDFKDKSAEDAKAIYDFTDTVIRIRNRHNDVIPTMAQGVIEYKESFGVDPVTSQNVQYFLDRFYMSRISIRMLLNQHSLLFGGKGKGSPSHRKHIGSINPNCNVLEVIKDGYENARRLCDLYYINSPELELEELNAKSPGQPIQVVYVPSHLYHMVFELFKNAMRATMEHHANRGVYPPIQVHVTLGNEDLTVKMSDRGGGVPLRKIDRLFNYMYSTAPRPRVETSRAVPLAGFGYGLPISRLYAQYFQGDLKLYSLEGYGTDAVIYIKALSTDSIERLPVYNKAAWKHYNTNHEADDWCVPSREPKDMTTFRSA

[4] = Inhibition of HSP90 (unknown origin) by AlphaScreen assay; design: species or system Homo sapiens
Tubulin = assay: Inhibition of tubulin polymerization (unknown origin); assay type: protein-complex assay, Homo sapiens
[5] = Inhibition of DNA topoisomerase 2 (unknown origin); design: species or system Homo sapiens
[6] = target: Serine/threonine-protein kinase B-raf (Homo sapiens, UniProt P15056, V600E); assay: Inhibition of B-Raf V600E mutant (unknown origin)
Sequence of Serine/threonine-protein kinase B-raf (Homo sapiens, UniProt P15056, V600E) (P15056 2-766 V600E limits assumed): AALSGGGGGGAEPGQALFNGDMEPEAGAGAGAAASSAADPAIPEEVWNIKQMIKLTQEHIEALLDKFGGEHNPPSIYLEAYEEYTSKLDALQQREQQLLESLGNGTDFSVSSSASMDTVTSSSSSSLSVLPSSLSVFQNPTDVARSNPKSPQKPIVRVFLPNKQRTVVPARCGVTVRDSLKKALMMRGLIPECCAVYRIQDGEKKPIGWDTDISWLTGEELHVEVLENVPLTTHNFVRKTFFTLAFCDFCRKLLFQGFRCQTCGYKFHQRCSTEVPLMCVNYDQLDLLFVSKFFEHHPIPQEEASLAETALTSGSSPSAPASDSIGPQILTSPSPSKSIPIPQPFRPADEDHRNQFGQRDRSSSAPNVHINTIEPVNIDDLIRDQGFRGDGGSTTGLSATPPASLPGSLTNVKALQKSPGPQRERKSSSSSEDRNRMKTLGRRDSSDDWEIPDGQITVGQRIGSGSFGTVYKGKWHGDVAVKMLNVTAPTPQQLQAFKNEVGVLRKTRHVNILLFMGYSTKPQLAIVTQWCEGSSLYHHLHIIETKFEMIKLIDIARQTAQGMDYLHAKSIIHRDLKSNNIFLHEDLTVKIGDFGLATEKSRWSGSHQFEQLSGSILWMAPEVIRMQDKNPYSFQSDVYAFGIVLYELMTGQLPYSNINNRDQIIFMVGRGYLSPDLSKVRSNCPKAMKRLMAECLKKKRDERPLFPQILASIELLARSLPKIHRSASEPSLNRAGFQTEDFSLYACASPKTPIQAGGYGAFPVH

[7] = target: Serine/threonine-protein kinase B-raf (Homo sapiens, UniProt P15056); assay: Inhibition of B-Raf (unknown origin)
Sequence of Serine/threonine-protein kinase B-raf (Homo sapiens, UniProt P15056) (P15056 whole entry): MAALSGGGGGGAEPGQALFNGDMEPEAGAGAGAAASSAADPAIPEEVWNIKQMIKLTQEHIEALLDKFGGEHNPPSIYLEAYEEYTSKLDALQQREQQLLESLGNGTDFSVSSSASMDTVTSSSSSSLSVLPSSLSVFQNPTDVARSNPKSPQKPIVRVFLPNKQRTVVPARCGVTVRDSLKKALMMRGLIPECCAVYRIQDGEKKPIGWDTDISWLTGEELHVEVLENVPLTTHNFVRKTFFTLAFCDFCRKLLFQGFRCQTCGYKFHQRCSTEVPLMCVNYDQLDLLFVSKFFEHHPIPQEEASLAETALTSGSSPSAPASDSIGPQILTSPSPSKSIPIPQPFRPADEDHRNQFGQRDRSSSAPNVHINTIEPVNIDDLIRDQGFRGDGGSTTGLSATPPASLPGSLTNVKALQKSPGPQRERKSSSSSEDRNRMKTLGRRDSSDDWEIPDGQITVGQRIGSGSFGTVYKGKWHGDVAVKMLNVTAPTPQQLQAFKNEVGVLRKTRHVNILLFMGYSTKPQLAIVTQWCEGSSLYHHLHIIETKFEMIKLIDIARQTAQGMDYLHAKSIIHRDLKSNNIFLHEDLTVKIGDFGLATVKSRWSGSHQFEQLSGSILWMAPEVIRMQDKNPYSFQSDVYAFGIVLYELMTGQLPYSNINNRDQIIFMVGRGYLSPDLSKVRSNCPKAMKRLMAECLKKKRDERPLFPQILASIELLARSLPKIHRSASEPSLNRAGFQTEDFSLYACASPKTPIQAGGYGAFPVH

[8] = target: T1, Heat shock protein HSP 90-alpha; assay: Binding affinity to recombinant HSP90alpha (unknown origin) assessed as dissociation constant measured for 24 hrs by fluorescence polarization assay
[9] = target: T1, Heat shock protein HSP 90-alpha; assay: Inhibition of HSP90alpha (unknown origin)
Endoplasmin = Endoplasmin (Homo sapiens, UniProt P14625); assay: Inhibition of recombinant GRP94 (unknown origin)
Sequence of Endoplasmin (P14625 whole entry): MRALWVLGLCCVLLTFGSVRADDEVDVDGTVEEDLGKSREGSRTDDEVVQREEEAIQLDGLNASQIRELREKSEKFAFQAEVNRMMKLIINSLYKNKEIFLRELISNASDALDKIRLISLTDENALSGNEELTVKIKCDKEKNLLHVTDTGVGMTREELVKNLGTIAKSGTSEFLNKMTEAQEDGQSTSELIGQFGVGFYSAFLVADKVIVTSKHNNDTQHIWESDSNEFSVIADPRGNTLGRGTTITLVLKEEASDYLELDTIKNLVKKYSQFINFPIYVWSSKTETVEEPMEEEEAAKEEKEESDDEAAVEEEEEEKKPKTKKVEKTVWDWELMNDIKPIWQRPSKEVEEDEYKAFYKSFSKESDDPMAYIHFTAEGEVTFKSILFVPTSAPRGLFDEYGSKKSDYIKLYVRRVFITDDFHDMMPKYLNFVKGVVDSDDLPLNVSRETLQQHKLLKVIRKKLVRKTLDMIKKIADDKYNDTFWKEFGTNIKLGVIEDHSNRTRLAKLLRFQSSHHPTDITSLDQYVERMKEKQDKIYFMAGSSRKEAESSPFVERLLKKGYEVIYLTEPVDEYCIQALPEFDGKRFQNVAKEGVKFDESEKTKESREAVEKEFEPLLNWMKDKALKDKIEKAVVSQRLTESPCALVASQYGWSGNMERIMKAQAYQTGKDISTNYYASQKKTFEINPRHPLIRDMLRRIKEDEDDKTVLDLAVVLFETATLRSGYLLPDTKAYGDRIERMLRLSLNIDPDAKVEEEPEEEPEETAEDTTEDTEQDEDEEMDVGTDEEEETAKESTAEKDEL

Sequence of Heat shock protein HSP 90-beta (P08238 whole entry): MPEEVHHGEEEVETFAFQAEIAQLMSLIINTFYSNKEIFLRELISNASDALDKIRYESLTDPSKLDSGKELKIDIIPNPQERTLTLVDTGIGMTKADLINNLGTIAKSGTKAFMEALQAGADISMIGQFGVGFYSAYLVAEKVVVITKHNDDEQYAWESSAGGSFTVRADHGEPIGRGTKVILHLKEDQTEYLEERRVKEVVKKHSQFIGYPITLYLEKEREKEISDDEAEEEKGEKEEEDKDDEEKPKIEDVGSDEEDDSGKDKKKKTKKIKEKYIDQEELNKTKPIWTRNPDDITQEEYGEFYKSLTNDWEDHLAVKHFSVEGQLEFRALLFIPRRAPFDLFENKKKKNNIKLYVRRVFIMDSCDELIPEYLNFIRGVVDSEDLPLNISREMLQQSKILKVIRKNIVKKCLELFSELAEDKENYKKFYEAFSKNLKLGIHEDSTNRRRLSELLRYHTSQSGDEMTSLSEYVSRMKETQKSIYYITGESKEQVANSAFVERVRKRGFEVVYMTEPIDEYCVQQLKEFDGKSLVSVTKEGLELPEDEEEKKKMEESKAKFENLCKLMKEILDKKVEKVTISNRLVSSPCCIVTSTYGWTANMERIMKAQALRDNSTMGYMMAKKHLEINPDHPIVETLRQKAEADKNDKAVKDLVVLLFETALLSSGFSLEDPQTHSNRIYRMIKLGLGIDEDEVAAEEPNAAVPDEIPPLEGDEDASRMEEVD

SMILES: CC(C)c1cc(C(=O)N2Cc3ccccc3C2)c(O)c2ccoc12
Kd [1]: 270 nM | Kd [2]: > 100000 nM

SMILES: Cc1c(C)c(S(=O)(=O)Nc2ccc(Nc3ccnc(N4CCNCC4)n3)cc2)c(C)c2c1OC(C)(C)C2
Kd [2]: 5520 nM

SMILES: COc1ccc(CN2CCC(NC(=O)c3noc(-c4cc(Cl)c(O)cc4O)c3-c3ccc(OC)cc3)CC2)cc1
IC50 [3]: 10 nM

SMILES: CN(C)c1ccc(/C=C2\S/C(=N/c3ccccc3Cl)NC2=O)cc1
IC50 [4]: 5200 nM | IC50 (Tubulin): 16700 nM

SMILES: CC1(C)CC(=O)C=C(Nc2c(N)[nH]c(=O)[nH]c2=O)C1
IC50 [4]: 1780 nM | IC50 [5]: 4480 nM

SMILES: COc1ccc(-c2c(C#N)c(N)nc3sc(C(N)=O)c(N)c23)cc1OC
IC50 [6]: 9100 nM | IC50 [7]: 28900 nM

SMILES: CC(C)c1cc(C(=O)N2Cc3ccc(CN4CCN(C)CC4)cc3C2)c(O)cc1O [ONALESPIB]
Kd [1]: 9000 nM

SMILES: COc1ccc(-c2c(/C=C/C(=O)N3CCN(c4ccccc4OC)CC3)noc2-c2cc(Cl)c(O)cc2O)cc1
IC50 [3]: 600 nM

Continued, values first:

Kd [1]: > 100000 nM | Kd [2]: 340 nM
SMILES: Cc1ccc(Sc2cc(C(=O)N3Cc4ccc(OCCC[N+](C)(C)C)cc4C3)ccc2O)cc1C

IC50 [6]: 2500 nM | IC50 [7]: 1500 nM
SMILES: N#Cc1c(N)nc2sc(C(N)=O)c(N)c2c1-c1ccc(Cl)cc1

Kd [8]: 870 nM | Kd [2]: 870 nM
SMILES: CCOC(=O)c1c(O)cc(O)c(Cl)c1CC(=O)Nc1cc(O)c(OC)cc1O

IC50 [9]: 8100 nM | IC50 (Endoplasmin): 200 nM
SMILES: CCOc1ccccc1Cn1ccnc1CCc1c(Cl)c(O)cc(O)c1C(=O)OC

IC50 [4]: 69 nM
SMILES: CC(C)c1cc(C(=O)N2CCc3c(sc4nc(-c5ccc(NC(=O)Nc6ccc(F)c(Cl)c6)cc5)nc(N5CCOCC5)c34)C2)c(O)cc1O
